Molecular target: T1, human 11β-HSD1 (Homo sapiens, UniProt P28845)
T1 construct: host or cells: microsome fraction
Assay: Enzymatic 11beta-HSD1 test (SPA-based detection)
Assay type: biochemical
Conditions: human 11β-HSD1 microsome fraction, [1,2-3H]-cortisone, NADPH, 37° C. 1 hour
Experimental: Enzymatic 11beta-HSD1 test:
To measure the activity of the compounds, an SPA-based detection method (Solly et al. 2005) was employed. First of all, 20 μl of the human 11β-HSD1 microsome fraction (0.2 μg of protein), prepared in 50 mM HEPES, 0.1% BSA (w/v), were applied to a plate with 384 wells. The test compounds (0.09 μl) were applied to the assay plate in 100% DMSO. The reaction was started by addition of 20 μl of [1,2-^3H]-cortisone (0.1 μCi/[…]) in assay buffer comprising 25 mM HEPES, 100 mM KCl, 5 mM NaCl, 2 mM MgCl2 and 0.25 mM NADPH. The plate was agitated at 37° C. for 1 hour. At the same time, a stop solution comprising 20 mg/ml SPA-PVT beads, 1.6 mg/ml monoclonal cortisol antibody and 0.01 mM SSR110887 (inhibitor from the Biovitrium patent) in 50 mM HEPES, 1 M NaCl and 1 M KCl was stirred at room temperature. To stop the reaction, 25 μl of the stop solution were added to each well. The plate was agitated gently at room temperature for 1 further hour and then centrifuged at 500 gav for 1 minute, in order that the SPA beads could settle out. The plate was then read in a Wallac-1450-Microbeta unit with a standard SPA program (counting time 1 min/well). The comparative compound was glycyrrhetinic acid.
Protein and radioactive substrate were dispensed with a Biomek FX unit (Beckman Coulter) for handling liquids. The test compounds were added with a Cybi-Well equipped with a 90 nl pin tool (CyBio).
Lit.: Solly S, Mundt S S, Zokian H J, Juy-Fang Ding G, Hermanowski-Vosatka A, Strulovici B and Zheng W. High-throughput screening of 11β-Hydroxysteroid dehydrogenase type 1 in scintillation proximity format. Assay Drug Dev Technol 2005; 3:377-384.

T1 sequence (P28845 whole entry): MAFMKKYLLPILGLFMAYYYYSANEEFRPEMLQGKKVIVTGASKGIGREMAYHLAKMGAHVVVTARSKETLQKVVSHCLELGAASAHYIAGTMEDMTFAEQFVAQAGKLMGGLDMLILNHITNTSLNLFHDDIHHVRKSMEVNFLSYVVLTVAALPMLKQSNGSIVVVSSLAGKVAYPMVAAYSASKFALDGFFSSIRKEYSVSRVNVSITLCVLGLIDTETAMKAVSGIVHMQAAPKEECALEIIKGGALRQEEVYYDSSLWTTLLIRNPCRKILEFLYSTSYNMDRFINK

SMILES	IC50 [µM]
CC1(C)OC(N[C@@H](CCO)c2ccccc2F)=NS(=O)(=O)C1c1ccc(N2CCN(CCC(F)(F)F)CC2)cc1 (mixture of isomers) [Example 131, (S)-3-(6,6-Dimethyl-4,4-dioxo-5-{4-[4-(3,3,3-trifluoropropyl)-piperazin-1-yl]-phenyl}-5,6-dihydro-4H-4lambda6-[1,4,3]oxathiazin-2-ylamino)-3-(2-fluorophenyl)-propan-1-ol]	0.017
CC1(C)OC(N[C@@H](CCO)c2ccccc2)=NS(=O)(=O)C1c1ccccc1 (single isomer, unassigned) [Example 28]	0.016
CC1(C)OC(N[C@@H](CCO)c2ccccc2)=NS(=O)(=O)C1c1ccccc1 (single isomer, unassigned) [Example 29]	0.023
CC1(C)OC(N[C@@H](CCO)c2ccccc2F)=NS(=O)(=O)C1c1ccc(-c2ccccc2)cc1 (single isomer, unassigned) [Example 69]	0.013
CC1(C)OC(N[C@@H](CCO)c2ccccc2F)=NS(=O)(=O)C1c1ccc(-c2ccccc2)cc1 (single isomer, unassigned) [Example 70]	0.019
CC1(C)OC(N[C@@H](CCO)c2ccccc2F)=NS(=O)(=O)C1(C)c1cccc(-c2ccccc2)c1 (single isomer, unassigned) [Example 75]	0.044
CC(C)(C)c1ccc(C2C(C)(C)OC(N[C@@H](CCO)c3ccccc3F)=NS2(=O)=O)cc1 (single isomer, unassigned) [Example 84]	0.015
CC1(C)OC(N[C@@H](CCO)c2ccccc2F)=NS(=O)(=O)C1c1ccc(N2CCN(CCC(F)(F)F)CC2)cc1 (single isomer, unassigned) [Example 183]	0.02
CC1(C)OC(N[C@@H](CCO)c2ccccc2)=NS(=O)(=O)C1c1cccc(C(F)(F)F)c1 (stereo partly drawn) [Compound 21, (S)-3-[6,6-Dimethyl-4,4-dioxo-5-(3-trifluoromethylphenyl)-5,6-dihydro-4H-4lambda6-[1,4,3]oxathiazin-2-ylamino]-3-phenylpropan-1-ol]	0.022
CC1(C)OC(N[C@@H](CCO)c2ccccc2)=NS(=O)(=O)C1(C)c1cccc(N2CCN(S(C)(=O)=O)CC2)c1 (stereo partly drawn) [Compound 34, (S)-3-{5-[3-(4-Methanesulfonylpiperazin-1-yl)-phenyl]-5,6,6-trimethyl-4,4-dioxo-5,6-dihydro-4H-4lambda6-[1,4,3]oxathiazin-2-ylamino}-3-phenylpropan-1-ol]	0.017
C[C@H](NC1=NS(=O)(=O)C(C)(c2cccc(N3CCN(S(C)(=O)=O)CC3)c2)C(C)(C)O1)c1ccccc1F (stereo partly drawn) [Compound 35, [(S)-1-(2-Fluorophenyl)ethyl]-{5-[3-(4-methanesulfonylpiperazin-1-yl)-phenyl]-5,6,6-trimethyl-4,4-dioxo-5,6-dihydro-4H-4lambda6-[1,4,3]oxathiazin-2-yl}amine]	0.015
C[C@H](NC1=NS(=O)(=O)C(C)(c2cccc(N3CCCC3)c2)C(C)(C)O1)c1ccccc1F (stereo partly drawn) [Compound 36, [(S)-1-(2-Fluorophenyl)ethyl]-[5,6,6-trimethyl-4,4-dioxo-5-(3-pyrrolidin-1-ylphenyl)-5,6-dihydro-4H-4lambda6-[1,4,3]oxathiazin-2-yl]amine]	0.015
CC1(C)OC(N[C@@H](CCO)c2ccccc2)=NS(=O)(=O)C1(C)c1cccc(N2CCCC2)c1 (stereo partly drawn) [Compound 38, (S)-3-Phenyl-3-[5,6,6-trimethyl-4,4-dioxo-5-(3-pyrrolidin-1-ylphenyl)-5,6-dihydro-4H-4lambda6-[1,4,3]oxathiazin-2-ylamino]propan-1-ol]	0.019
CC1(C)OC(N[C@@H](CCO)c2ccccc2)=NS(=O)(=O)C1(C)c1cccc(N2CCCC2)c1 (stereo partly drawn) [Compound 39, (S)-3-Phenyl-3-[5,6,6-trimethyl-4,4-dioxo-5-(3-pyrrolidin-1-ylphenyl)-5,6-dihydro-4H-4lambda6-[1,4,3]oxathiazin-2-ylamino]propan-1-ol]	0.024
CC1(C)OC(N[C@@H](CCO)c2ccccc2)=NS(=O)(=O)C1(C)c1cccc(-c2cncnc2)c1 (stereo partly drawn) [Compound 40, (S)-3-Phenyl-3-[5,6,6-trimethyl-4,4-dioxo-5-(3-pyrimidin-5-ylphenyl)-5,6-dihydro-4H-4lambda6-[1,4,3]oxathiazin-2-ylamino]propan-1-ol]	0.015
CC1(C)OC(N[C@@H](CCO)c2ccccc2F)=NS(=O)(=O)C1(C)c1cccc(N2CCCC2)c1 (stereo partly drawn) [Compound 49, (S)-3-(2-Fluorophenyl)-3-[5,6,6-trimethyl-4,4-dioxo-5-(3-pyrrolidin-1-ylphenyl)-5,6-dihydro-4H-4lambda6-[1,4,3]oxathiazin-2-ylamino]propan-1-ol]	0.024
C[C@H](NC1=NS(=O)(=O)C(c2ccc(-c3ccccc3)cc2)C(C)(C)O1)c1ccccc1F (stereo partly drawn) [Compound 52, (5-Biphenyl-4-yl-6,6-dimethyl-4,4-dioxo-5,6-dihydro-4H-4lambda6-[1,4,3]oxathiazin-2-yl)-[(S)-1-(2-fluorophenyl)ethyl]amine]	0.064
CC(C)(C)c1ccc(C2C(C)(C)OC(N[C@@H](CCO)c3ccccc3F)=NS2(=O)=O)cc1 (stereo partly drawn) [Compound 58, (S)-3-[5-(4-tert-Butylphenyl)-6,6-dimethyl-4,4-dioxo-5,6-dihydro-4H-4lambda6-[1,4,3]oxathiazin-2-ylamino]-3-(2-fluorophenyl)propan-1-ol]	0.021
C[C@H](NC1=NS(=O)(=O)C(c2ccc(C(C)(C)C)cc2)C(C)(C)O1)c1ccccc1F (stereo partly drawn) [Compound 59, [5-(4-tert-Butylphenyl)-6,6-dimethyl-4,4-dioxo-5,6-dihydro-4H-4lambda6-[1,4,3]oxathiazin-2-yl]-[(S)-1-(2-fluorophenyl)ethyl]amine]	0.055
CC(C)(C)c1ccc(C2C(C)(C)OC(N[C@@H](CCO)c3ccccc3)=NS2(=O)=O)cc1 (stereo partly drawn) [Compound 60, (S)-3-[5-(4-tert-Butylphenyl)-6,6-dimethyl-4,4-dioxo-5,6-dihydro-4H-4lambda6-[1,4,3]oxathiazin-2-ylamino]-3-phenylpropan-1-ol]	0.043
CC(C)(C)c1ccc(C2(C)C(C)(C)OC(N[C@@H](CCO)c3ccccc3F)=NS2(=O)=O)cc1 (stereo partly drawn) [Compound 61, (S)-3-[5-(4-tert-Butylphenyl)-5,6,6-trimethyl-4,4-dioxo-5,6-dihydro-4H-4lambda6-[1,4,3]oxathiazin-2-ylamino]-3-(2-fluorophenyl)propan-1-ol]	0.014

These reach a lower IC50. Values come first.

IC50 [µM]	SMILES
0.012	CC1(C)OC(N[C@@H](CCO)c2ccccc2F)=NS(=O)(=O)C1(C)c1cccc(-c2ccccc2)c1 (single isomer, unassigned) [Example 74]
0.009	CC(C)(C)c1ccc(C2C(C)(C)OC(N[C@@H](CCO)c3ccccc3F)=NS2(=O)=O)cc1 (single isomer, unassigned) [Example 85]
0.006	CC1(C)OC(N[C@@H](CCO)c2ccccc2F)=NS(=O)(=O)C1c1ccc(N2CCN(CCC(F)(F)F)CC2)cc1 (single isomer, unassigned) [Example 182]
0.01	C[C@H](NC1=NS(=O)(=O)C(C)(c2cccc(-c3cncnc3)c2)C(C)(C)O1)c1ccccc1F (stereo partly drawn) [Compound 41, [(S)-1-(2-Fluorophenyl)ethyl]-[5,6,6-trimethyl-4,4-dioxo-5-(3-pyrimidin-5-ylphenyl)-5,6-dihydro-4H-4lambda6-[1,4,3]oxathiazin-2-yl]amine]
0.007	C[C@H](NC1=NS(=O)(=O)C(C)(c2ccccc2)C(C)(C)O1)c1ccccc1F (stereo partly drawn) [Compound 43, [(S)-1-(2-Fluorophenyl)ethyl]-(5,6,6-trimethyl-4,4-dioxo-5-phenyl-5,6-dihydro-4H-4lambda6-[1,4,3]oxathiazin-2-yl)amine]
0.011	CC1(C)OC(N[C@@H](CCO)c2ccccc2F)=NS(=O)(=O)C1(C)c1cccc(N2CCCC2)c1 (stereo partly drawn) [Compound 45, (S)-3-(2-Fluorophenyl)-3-[5,6,6-trimethyl-4,4-dioxo-5-(3-pyrrolidin-1-ylphenyl)-5,6-dihydro-4H-4lambda6-[1,4,3]oxathiazin-2-ylamino]propan-1-ol]
0.005	CC1(C)OC(N[C@@H](CCO)c2ccccc2F)=NS(=O)(=O)C1(C)c1ccccc1 (stereo partly drawn) [Compound 48, (S)-3-(2-Fluorophenyl)-3-(5,6,6-trimethyl-4,4-dioxo-5-phenyl-5,6-dihydro-4H-4lambda6-[1,4,3]oxathiazin-2-ylamino)propan-1-ol]
0.008	C[C@H](NC1=NS(=O)(=O)C(C)(c2ccccc2)C(C)(C)O1)c1ccccc1F (stereo partly drawn) [Compound 56, [(S)-1-(2-Fluorophenyl)ethyl]-(5,6,6-trimethyl-4,4-dioxo-5-phenyl-5,6-dihydro-4H-4lambda6-[1,4,3]oxathiazin-2-yl)amine, stereomer 1]
0.007	C[C@H](NC1=NS(=O)(=O)C(C)(c2ccccc2)C(C)(C)O1)c1ccccc1F (stereo partly drawn) [Compound 57, [(S)-1-(2-Fluorophenyl)ethyl]-(5,6,6-trimethyl-4,4-dioxo-5-phenyl-5,6-dihydro-4H-4lambda6-[1,4,3]oxathiazin-2-yl)amine, stereomer 2]

From patent US8895547B2, “Substituted phenyl-oxathiazine derivatives, method for producing them, drugs containing said compounds and the use thereof” (Sanofi, priority 2011, dated 2014)
